Data on five compounds can be found in US7247634B2, “Rifamycin derivatives effective against drug-resistant microbes” (Cumbre Pharmaceuticals Inc., priority 2004, dated 2007).

Converted amounts (≈) assume the structure as drawn.

Assay type in all cases: cell-based
For test [1], the system named is Enterococcus faecalis ATCC29212. Nature of the test: MIC, microbroth dilution (NCCLS). The note with it: rifS strain, BHI Broth, 37° C., read-out: Antimicrobial activity (MIC).
Test [2] relates to Haemophilus influenzae ATCC10211. Nature of the test: MIC, microbroth dilution (NCCLS). The conditions noted are these: rifS strain, BHI Broth with NAD and hematin, 37° C., read-out: Antimicrobial activity (MIC). (In general: Broth dilution looks for growth in wells or tubes with falling amounts of substance.)
Test [3] relates to Streptococcus pyogenes ATCC19615. In words: MIC, microbroth dilution (NCCLS). The note with it: rifS strain, THY Broth, 37° C., read-out: Antimicrobial activity (MIC).
Test [4] has as its system Mycobacterium smegmatis ATCC700084. In words: MIC, microbroth dilution (NCCLS). The conditions noted are these: Mycolicibacterium smegmatis, rifS strain, Middlebrook Broth plus ADC Enrichment, 37° C., read-out: Antimicrobial activity (MIC).
Test [5] deals with Staphylococcus aureus ATCC29213. Nature of the test: MIC, microbroth dilution (NCCLS). The note with it: rifS strain, Cation-Adjusted Mueller-Hinton Broth, 37° C., read-out: Antimicrobial activity (MIC).
Test [6] has as its system Escherichia coli ATCC25922. In words: MIC, microbroth dilution (NCCLS). The conditions noted are these: rifS strain, Cation-Adjusted Mueller-Hinton Broth, 37° C., read-out: Antimicrobial activity (MIC).
Test [7] concerns Streptococcus pneumoniae ATCC6303. In words: MIC, microbroth dilution (NCCLS). The note with it: rifS strain, THY Broth with 1 mg/mL catalase, 5% CO2, 37° C., read-out: Antimicrobial activity (MIC).
For test [8], the system named is Staphylococcus epidermidis ATCC12228. Nature of the test: MIC, microbroth dilution (NCCLS). The note with it: rifS strain, Cation-Adjusted Mueller-Hinton Broth, 37° C., read-out: Antimicrobial activity (MIC).
The subject of test [9] is Staphylococcus aureus ATCC29213 rpoB^D417Y. Nature of the test: microbe, parasite or virus in culture. The conditions noted are these: ATCC29213, read-out: Antimicrobial activity (MIC). Summed up: (§1)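 MICs by NCCLS broth microdilution, incubation at 37 °C, in cation-adjusted Mueller-Hinton broth. Strains: rifampin-resistant S. aureus ATCC 29213 with rpoB D417Y or H418Y, and quinolone-resistant EN1252a carrying gyrA S84L plus grlA S80F.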

Test [10] relates to Staphylococcus aureus EN1252a gyrA^S84L grlA^S80F. In words: microbe, parasite or virus in culture. The conditions noted are these: read-out: Antimicrobial activity (MIC). The essentials: as §1
The test system of test [11] is Staphylococcus aureus ATCC29213 rpoB^H418Y. Nature of the test: microbe, parasite or virus in culture. The note with it: ATCC29213, read-out: Antimicrobial activity (MIC). The essentials:
as §1

On to `CO[C@H]1/C=C/O[C@@]2(C)Oc3c(C)c(O)c4c(c3C2=O)C(=O)C(N2CCN(C3CCN(c5nc6c(cc5F)c(=O)c(C(=O)O)cn6-c5ccc(F)cc5F)C3)CC2)=C(NC(=O)/C(C)=C\C=C\[C@H](C)[C@H](O)[C@@H](C)[C@@H](O)[C@@H](C)[C@H](OC(C)=O)[C@@H]1C)C4=O` (mixture of isomers) [Example 54], for which the MIC in [1] was 2 to 32 µg/mL (≈ 1.71 to 27.4 µM); in [2] it was 0.125 to 2 µg/mL (≈ 0.107 to 1.71 µM); in test [3], 0.008 to 0.063 µg/mL (≈ 0.00685 to 0.054 µM); in test [4] it was 0.5 to 64 µg/mL; in test [5] it was 0.004 to 0.5 µg/mL (≈ 0.00343 to 0.428 µM); in test [6], 0.125 to 8 µg/mL (≈ 0.107 to 6.85 µM). Also, the MIC in [7] lay within 0.008 to 0.125 µg/mL (≈ 0.00685 to 0.107 µM); in test [8], 0.008 to 0.063 µg/mL (≈ 0.00685 to 0.054 µM); in test [9], 0.06 to 32 µg/mL (≈ 0.0514 to 27.4 µM); in test [10] it was 0.004 to 0.5 µg/mL (≈ 0.00343 to 0.428 µM); in test [11], 0.06 to 16 µg/mL (≈ 0.0514 to 13.7 µM).
Take `CO[C@H]1/C=C/O[C@@]2(C)Oc3c(C)c(O)c4c(O)c(c(CN[C@@H]5CCN(c6cc7c(cc6F)c(=O)c(C(=O)O)cn7C6CC6)C5)c(O)c4c3C2=O)NC(=O)/C(C)=C\C=C\[C@H](C)[C@H](O)[C@@H](C)[C@@H](O)[C@@H](C)[C@H](OC(C)=O)[C@@H]1C` [Example 15, (R)-3-[1-(3-carboxy-1-cyclopropyl-6-fluoro-4-oxo-1,4-dihydroquinolin-7-yl)-pyrrolidinyl-3-aminomethyl]rifamycin SV]: the MIC in test [1] was in the range of 2 to 32 µg/mL (≈ 1.92 to 30.7 µM); in [2], 0.125 to 2 µg/mL (≈ 0.12 to 1.92 µM); in test [3] it was 0.008 to 0.063 µg/mL (≈ 0.00768 to 0.0605 µM); in [4], 0.5 to 64 µg/mL; in [5], 0.004 to 0.5 µg/mL (≈ 0.00384 to 0.48 µM); in [6] it was 0.125 to 8 µg/mL (≈ 0.12 to 7.68 µM). The MIC in test [7] lay in the range of 0.008 to 0.125 µg/mL (≈ 0.00768 to 0.12 µM); in test [8] it was 0.008 to 0.063 µg/mL (≈ 0.00768 to 0.0605 µM); in test [9] it was 0.06 to 32 µg/mL (≈ 0.0576 to 30.7 µM); in test [10] it was 0.004 to 0.5 µg/mL (≈ 0.00384 to 0.48 µM); in [11], 0.06 to 16 µg/mL (≈ 0.0576 to 15.4 µM).
Regarding `CO[C@H]1/C=C/O[C@@]2(C)Oc3c(C)c(O)c4c(c3C2=O)C(=O)C(N[C@@H]2CCN(c3cc5c(cc3F)c(=O)c(C(=O)O)cn5C3CC3)C2)=C(NC(=O)/C(C)=C\C=C\[C@H](C)[C@H](O)[C@@H](C)[C@@H](O)[C@@H](C)[C@H](OC(C)=O)[C@@H]1C)C4=O` [Example 8, (R)-3-[1-(3-Carboxy-1-cyclopropyl-6-fluoro-4-oxo-1,4-dihydroquinolin-7-yl)-pyrrolidin-3-ylamino]rifamycin S], the MIC lay within 2 to 32 µg/mL (≈ 1.95 to 31.2 µM) in [1]; 0.125 to 2 µg/mL (≈ 0.122 to 1.95 µM) in [2]; 0.008 to 0.063 µg/mL (≈ 0.0078 to 0.0615 µM) in test [3]; 0.5 to 64 µg/mL in test [4]; 0.004 to 0.5 µg/mL (≈ 0.0039 to 0.488 µM) in [5]; 0.125 to 8 µg/mL (≈ 0.122 to 7.8 µM) in test [6]. Further, the MIC lay in the range of 0.008 to 0.125 µg/mL (≈ 0.0078 to 0.122 µM) in test [7]; 0.008 to 0.063 µg/mL (≈ 0.0078 to 0.0615 µM) in test [8]; 0.06 to 32 µg/mL (≈ 0.0585 to 31.2 µM) in [9]; 0.004 to 0.5 µg/mL (≈ 0.0039 to 0.488 µM) in test [10]; 0.06 to 16 µg/mL (≈ 0.0585 to 15.6 µM) in test [11].
In the case of `CO[C@H]1/C=C/O[C@@]2(C)Oc3c(C)c(O)c4c(c3C2=O)C(=O)C(N2CCC(NC3CCN(c5c(F)cc6c(=O)c(C(=O)O)cn(C7CC7)c6c5Cl)C3)CC2)=C(NC(=O)/C(C)=C\C=C\[C@H](C)[C@H](O)[C@@H](C)[C@@H](O)[C@@H](C)[C@H](OC(C)=O)[C@@H]1C)C4=O` (mixture of isomers) [Example 29, (R/S)-3-{4-[1-(3-Carboxy-8-chloro-1-cyclopropyl-6-fluoro-4-oxo-1,4-dihydroquinolin-7-yl)-pyrrolidin-3-ylamino]-piperidin-1-yl}rifamycin S], the MIC in [1] was in the range of 2 to 32 µg/mL (≈ 1.75 to 28 µM); in [2], 0.125 to 2 µg/mL (≈ 0.109 to 1.75 µM); in [3], 0.008 to 0.063 µg/mL (≈ 0.007 to 0.0551 µM); in test [4] it was 0.5 to 64 µg/mL; in test [5], 0.004 to 0.5 µg/mL (≈ 0.0035 to 0.438 µM); in test [6] it was 0.125 to 8 µg/mL (≈ 0.109 to 7 µM). Further, the MIC lay within 0.008 to 0.125 µg/mL (≈ 0.007 to 0.109 µM) in test [7]; 0.008 to 0.063 µg/mL (≈ 0.007 to 0.0551 µM) in test [8]; 0.06 to 32 µg/mL (≈ 0.0525 to 28 µM) in test [9]; 0.004 to 0.5 µg/mL (≈ 0.0035 to 0.438 µM) in test [10]; 0.06 to 16 µg/mL (≈ 0.0525 to 14 µM) in test [11].
Consider `COc1c(N2CCCC(NC(=O)C3CCN(C4=C5NC(=O)/C(C)=C\C=C\[C@H](C)[C@H](O)[C@@H](C)[C@@H](O)[C@@H](C)[C@H](OC(C)=O)[C@H](C)[C@@H](OC)/C=C/O[C@@]6(C)Oc7c(C)c(O)c(c(c7C6=O)C4=O)C5=O)CC3)C2)c(F)cc2c(=O)c(C(=O)O)cn(C3CC3)c12` (mixture of isomers) [Example 52], for which the MIC in [1] was 2 to 32 µg/mL (≈ 1.69 to 27.1 µM); in test [2], 0.125 to 2 µg/mL (≈ 0.106 to 1.69 µM); in [3], 0.008 to 0.063 µg/mL (≈ 0.00678 to 0.0534 µM); in test [4], 0.5 to 64 µg/mL; in test [5], 0.004 to 0.5 µg/mL (≈ 0.00339 to 0.424 µM); in test [6] it was 0.125 to 8 µg/mL (≈ 0.106 to 6.78 µM). For the same compound, the MIC in test [7] was 0.008 to 0.125 µg/mL (≈ 0.00678 to 0.106 µM); in test [8], 0.008 to 0.063 µg/mL (≈ 0.00678 to 0.0534 µM); in test [9], 0.06 to 32 µg/mL (≈ 0.0508 to 27.1 µM); in test [10] it was 0.004 to 0.5 µg/mL (≈ 0.00339 to 0.424 µM); in test [11] it was 0.06 to 16 µg/mL (≈ 0.0508 to 13.6 µM).
